# Results: patent US10118921B2, “Diarylmethylidene piperidine derivatives and their use as delta opoid receptor agnists” (PHARMNOVO AB, priority 2014, dated 2018)
# Assays:
# Format in all cases: cell-based
# δ-opioid receptor (DOR) [1] = target: T1, δ-opioid receptor (DOR) (Homo sapiens, UniProt P41143); assay: cAMP measurement in δ-opioid-expressing CHO cells (DiscoveRx cAMP Hunter)
# Text: (§1) δ-opioid receptors (DOR) are coupled to inhibitory G proteins (Gi/o) which inhibit adenylyl cyclase activity, open K^+ channels and block Ca^2+ channels. They can also couple, in an agonist-dependent manner to β-arrestin 2, which lead to desensitization, and to MAP kinase (ERK) phosphorylation.
# (§2) In Vitro Assessment of δ-Opioid Agonist Potency: […]
# (§3) cAMP measurements will be made in δ-opioid-expressing CHO cells exposed to increasing agonist concentrations using DiscoveRx cAMP Hunter™ assay kits. β-arrestin recruitment will be measured in the presence of increasing agonist concentrations using DiscoveRx Pathunter® kits. Selectivity of mu- and kappa-opioid receptors will be performed using Cerep cAMP evaluation from ref. 1392 and 2071 (Cerep Le Bois l'Evéque, 86600 Celle l'Evescault, France).
# mu-opioid receptor = mu-opioid receptor (Homo sapiens, UniProt P35372); assay: Selectivity versus mu-opioid receptor, Cerep cAMP evaluation; settings: ratio mu/delta
# Chain of mu-opioid receptor (P35372 whole entry): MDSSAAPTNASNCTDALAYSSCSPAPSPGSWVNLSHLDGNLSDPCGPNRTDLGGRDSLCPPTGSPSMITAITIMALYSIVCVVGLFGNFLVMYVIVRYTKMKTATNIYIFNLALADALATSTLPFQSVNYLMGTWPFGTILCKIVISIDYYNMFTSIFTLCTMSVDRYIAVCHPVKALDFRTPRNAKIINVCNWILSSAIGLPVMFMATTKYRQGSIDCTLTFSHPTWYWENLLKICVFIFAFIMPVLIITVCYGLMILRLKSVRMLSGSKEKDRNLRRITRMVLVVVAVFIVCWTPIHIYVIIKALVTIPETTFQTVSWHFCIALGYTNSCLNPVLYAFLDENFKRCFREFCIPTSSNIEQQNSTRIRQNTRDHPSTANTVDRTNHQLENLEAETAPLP
# Text: as §3
# kappa-opioid receptor = kappa-opioid receptor (Rattus norvegicus, UniProt P34975); assay: Selectivity versus kappa-opioid receptor, Cerep cAMP evaluation; settings: ratio kappa/delta
# Chain of kappa-opioid receptor (P34975 whole entry): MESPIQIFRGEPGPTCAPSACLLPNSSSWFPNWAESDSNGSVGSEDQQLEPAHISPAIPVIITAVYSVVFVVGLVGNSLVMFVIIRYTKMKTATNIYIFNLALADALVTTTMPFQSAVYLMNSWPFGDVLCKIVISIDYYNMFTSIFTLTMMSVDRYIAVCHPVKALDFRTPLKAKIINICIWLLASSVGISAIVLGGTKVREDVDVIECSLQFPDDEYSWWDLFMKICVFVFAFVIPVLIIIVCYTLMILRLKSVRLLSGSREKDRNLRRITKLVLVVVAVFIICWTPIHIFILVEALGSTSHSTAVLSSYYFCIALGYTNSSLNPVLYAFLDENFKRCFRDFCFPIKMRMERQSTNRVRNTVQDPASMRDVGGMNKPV
# Text: as §3
# δ-opioid receptor (DOR) [2] = target: T1, δ-opioid receptor (DOR); assay: β-arrestin recruitment (DiscoveRx Pathunter)
# Text: as §1, §2, §3
# [3] = δ-opioid-expressing CHO cells, agonist potency, read-out: EC-50 cAMP
# [4] = β-arrestin recruitment, agonist potency, read-out: EC-50 beta-arrestin
# T1 sequence (P41143 whole entry): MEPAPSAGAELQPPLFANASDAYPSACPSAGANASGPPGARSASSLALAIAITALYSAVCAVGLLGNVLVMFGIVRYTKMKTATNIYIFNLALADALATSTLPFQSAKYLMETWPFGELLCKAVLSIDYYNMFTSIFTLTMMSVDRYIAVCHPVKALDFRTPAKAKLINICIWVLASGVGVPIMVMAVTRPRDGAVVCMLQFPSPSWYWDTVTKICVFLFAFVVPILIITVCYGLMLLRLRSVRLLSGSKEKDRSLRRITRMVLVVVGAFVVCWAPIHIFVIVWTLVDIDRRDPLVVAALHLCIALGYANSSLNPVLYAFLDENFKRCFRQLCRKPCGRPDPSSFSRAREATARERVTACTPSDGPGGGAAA
Structure (SMILES),EC50 (δ-opioid receptor (DOR) [1]; [3]),Selectivity (mu/delta) (mu-opioid receptor),Selectivity (kappa/delta) (kappa-opioid receptor),EC50 (δ-opioid receptor (DOR) [2]; [4]),EC50 (δ-opioid receptor (DOR) [1]),EC50 (δ-opioid receptor (DOR) [2])
"CN(C)C(=O)c1ccc(C(=C2CCN(Cc3ccc(C(F)(F)F)nc3)CC2)c2cccc(C(N)=O)c2)cc1 [Example 1a, 4-[(3-Carbamoylphenyl)(1-{[6-(trifluoromethyl)pyridin-3-yl]methyl}piperidin-4-ylidene)methyl]-N,N-dimethylbenzamide]",2.8 nM,360,360,28 nM,,
"CN(C)C(=O)c1ccc(C(=C2CCN(Cc3cncs3)CC2)c2cccc(C(N)=O)c2)cc1 [Example 1b, 4-[(3-Carbamoylphenyl)[1-(1,3-thiazol-5-ylmethyl)piperidin-4-ylidene]methyl]-N,N-dimethylbenzamide]",,100000,1000,,0.5 nM,4 nM
"Cc1nc[nH]c1CN1CCC(=C(c2ccc(C(=O)N(C)C)cc2)c2cccc(C(N)=O)c2)CC1 [Example 1c, 4-[(3-Carbamoylphenyl)({1-[(4-methyl-1H-imidazol-5-yl)methyl]piperidin-4-ylidene})methyl]-N,N-dimethylbenzamide]",0.5 nM,1000,1000,3 nM,,
